This passage reports IC50 results from ChEMBL document CHEMBL3352106, “Phosphocalyculin C as a pyrophosphate protoxin of calyculin C in the marine sponge Discodermia calyx” (Bioorg Med Chem Lett, 2014).

The test system of the test is P388. In words: Cytotoxicity against mouse P388 cells assessed as reduction in cell viability. It is filed as functional, cell-based.

For `COC[C@@H]([C@H](O)[C@H](O)C(=O)N[C@H](C)C[C@H](C)c1nc(/C=C/C[C@@H]2O[C@]3(C[C@@H](O)[C@@H]2C)O[C@H]([C@H](C[C@H](O)[C@H](C)[C@H](O)[C@H](C)/C=C(C)/C(C)=C/C=C/C(C)=C\C#N)OC)[C@H](OP(=O)(O)OP(=O)(O)O)C3(C)C)co1)N(C)C`, the IC50 – broadly, the concentration at which inhibition is half-maximal – came out at 36 nM.

For `COC[C@@H]([C@H](O)[C@H](O)C(=O)N[C@H](C)C[C@H](C)c1nc(/C=C/C[C@@H]2O[C@]3(C[C@@H](O)[C@@H]2C)O[C@H]([C@H](C[C@H](O)[C@H](C)[C@H](O)[C@H](C)/C=C(C)/C(C)=C/C=C/C(C)=C\C#N)OC)[C@H](OP(=O)(O)O)C3(C)C)co1)N(C)C` [CALYCULIN], the IC50 is 0.007 nM.
